In patent US20190225652A1, “GENERATION OF PEPTIDES” (Hexima Limited, priority 2015, published 2019):

B1: rOaAEP3: recombinant Oldenlandia affinis asparaginyl endopeptidase OaAEP3 (protein)
chain: MVRYLAGAFQVVLLVVILSDIAISEERTDGYLKLPTEVSRFFRTPEQSSDGGDDSIGTRWAVLIAGSKGYDNYRHQADVCHAYQILKRGGLKDENIVVFMYDDIAYNESNPRPGVIINSPHGSDVYAGVPKDYTGDEVNAKNFLAAILGNKSAITGGSGKVVDSGPNDHIFIYYTDHGAPGVIGMPSKPYLYADELNDALRKKHASGTYKSMVFYLEACEAGSMFDGLLPDGLNIYALTASNTTEGSWCYYCPGQDAGPPPEYSVCLGDFFSIAWLEDSDVHNLRSETLNQQYHNVKNRISYASHATQYGDLKRGVEGLFLYLGSNPENDNYTFVDDNVVRPSSKAVNQRDADLVHFWEKFRKAPEGSSKKEEAQKQILEAMSHRVHIDSSINLIGKLLFGIEKGHKILTAVRSAGHPLVDDWACLRSLVRTFETHCGSLSQYGMKHTRTLANICNAGITEEQMAEAASQACVSIPSNPWSSHDGGFSA
modifications: Oldenlandia affinis OaAEP3
B2: rOaAEP4: recombinant Oldenlandia affinis asparaginyl endopeptidase OaAEP4 (protein)
chain: MVRYPAGAVLLLVVLSVVAVDGARDGYLKLPSEVSDFFRPRNTNDGDDSVGTRWAVLLAGSNGYWNYRHQADLCHAYQILKRGGLKDENIVVFMYDDIAYNEENPRPGVIINSPHGSDVYAGVPKDYTGDEVNAKNFLAAILGNKSAITGGSGKVVDSGPNDHIFIYYTDHGAPGVIGMPSKPYLYADELNDALRKKHASGTYKSMVFYLEACEAGSMFDGLLPDGLNIYALTASNTTEGSWCYYCPGQDAGPPPEYSVCLGDFFSIAWLEDSDVHNLRSETLNQQYHNVKNRISYASHATQYGDLKRGVEGLFLYLGSNPENDNYTFVDDNVVRPSSKAVNQRDADLVHFWEKFRKAPEGSSKKEEAQKQILEAMSHRVHIDSSINLIGKLLFGIEKGHKILTAVRSAGHPLVDDWACLRSLVRTFETHCGSLSQYGMKHTRTLANICNAGITEEQMAEAASQACVSIPSNPWSSHDGGFSA
modifications: OaAEP4 aa
notes: recombinant Oldenlandia affinis asparaginyl endopeptidase OaAEP4

Tests used:
[1] = test system: rOaAEP1b, rOaAEP3, rOaAEP4 and rOaAEP5; assay: Cyclization assay with rOaAEP1b, rOaAEP3, rOaAEP4 and rOaAEP5 (MALDI/ESI MS); format: biochemical, Oldenlandia affinis; conditions: peptides with added AEP recognition residues, 280 μM, enzymes 19.7 μg mL^−1 total protein, MS
Procedure: Linear target peptides (280 μM, unless otherwise indicated) were incubated with rOaAEP1b, rOaAEP3, rOaAEP4 or rOaAEP5 (total protein concentration as indicated in the description of figures) in activity buffer (50 mM sodium acetate, 50 mM NaCl, 1 mM ethylenediaminetetraacetic acid [EDTA], 0.5 μM Tris(2-carboxyethyl)phosphine hydrochloride [TCEP], pH 5). The reaction was allowed to proceed for up to 22 hours at room temperature and was analysed by matrix-assisted laser desorption/ionization mass spectrometry (MALDI MS), high performance liquid chromatography (HPLC) or nuclear magnetic resonance (NMR) as appropriate.
Cyclization or inter-molecular ligation of linear target peptides was monitored by MALDI or ESI MS. In both cases, the reaction mixture (5-50 μL) was de-salted using C18 zip tips (Millipore) and eluted in 4 μL 50-75% v/v acetonitrile, 0.1% v/v trifluoroacetic acid (TFA).
For MALDI MS, a saturated MALDI matrix solution (α-cyano-4-hyroxycinnamic acid, CHCA, Bruker) prepared in 95% v/v acetonitrile, 0.1% v/v TFA was diluted 1:22 such that the final matrix solution comprised 90% v/v acetonitrile, 0.1% v/v TFA and 1 mM NH4H2PO4. Eluted samples were mixed 1:4 with the MALDI matrix, spotted onto a MALDI plate and analyzed by an Ultraflex III TOF/TOF (Bruker) in positive reflector mode. Data were analyzed using the flexAnalysis program (Bruker).
For ESI MS, 96 μl of 75% v/v acetonitrile, 01% v/v TFA was added to the de-salted sample. The sample was then injected into a MicroTOF Q (Bruker) and data was collected in positive ionisation mode. The mass of ligated or cyclized product was determined by charge deconvolution using the Compass DataAnalysis program (Bruker).
The ability of activated AEPs (rOaAEP1b, rOaAEP3, rOaAEP4 and rOaAEP5) to cyclize peptide substrates structurally unrelated to cyclotides was tested in the cyclization assay described in the Materials and Methods. The anti-malarial peptide R1 (Harris et al. (2009) J Biol Chem 284(14):9361-9371; Harris et al. (2005) Infect Immun 73(10):6981-6989); Bac2A, a linear derivative of the bovine peptide bactenecin (Wu and Hancock (1999) Antimicrob Agents Ch 43:1274-1276); and the anti-fungal peptide EcAMP1 (Nolde et al. (2011) J Biol Chem 286(28):25145-25153) were produced with additional AEP recognition residues and used as the substrates.
To investigate the sequence requirements for in vitro cyclization, R1 was used as a model peptide. The recognition residues added to this model peptide were sequentially trimmed to determine the minimal requirements for AEP-mediated cyclization. The N- and C-terminal recognition residues were also substituted with alternate amino acids to determine if particular classes of residues were preferred for cyclization by these recombinant AEPs. The ability of activated AEPs (rOaAEP1b, rOaAEP3, rOaAEP4 and rOaAEP5) to cyclize the R1 peptide with varied flanking sequences was then tested in the cyclization assay described in the Materials and Methods (FIG. 10; Table 3).

rOaAEP1b = assay: Cyclization assay with rOaAEP1b (MALDI MS); format: biochemical, Oldenlandia affinis
[2] = Protease activity against fluorogenic substrate Z-AAN-MCA; format: biochemical; conditions: enzyme ~5 μg mL^−1 total protein, Z-AAN-MCA 100 μM, 37° C., 60 minutes
Procedure: FIG. 15 is a graphical representation of the activity of recombinant O. affinis AEPs (˜5 μg mL^−1 total protein) and rhuLEG (1 μg mL^−1 total protein) over time against the fluorogenic substrate Z-AAN-MCA (100 μM). Activity is tracked at 1 minute intervals at 37° C. for 60 minutes using excitation and emission wavelengths of 360 and 460 nm respectively. A single representative experiment is shown. RFU, relative fluorescence units.
To assay activity of recombinant AEPs (rOaAEP1b, rOaAEP3, rOaAEP4 or rOaAEP5) against both internally-quenched and other fluorescent peptides, substrate and enzyme were diluted as appropriate in activity buffer (50 mM sodium acetate, 50 mM NaCl, 1 mM EDTA, 0.5 μM TCEP, pH 5). To assay activity of recombinant human legumain (rhuLEG; R&D systems) against the same substrates, the enzyme was first activated by incubation in 50 mM sodium acetate, 100 mM NaCl, pH 4 (4 μL buffer/1 μL enzyme) for 2 hours at 37° C. Substrates and activated rhuLEG were diluted in 50 mM acetate, 0.1% v/v triton X 100, 0.5 μM TCEP pH 5.5 or in 50 mM MES, 250 mM NaCl, pH 5 as required. Diluted enzyme and substrate were added to black, flat bottomed microtiter plates in a total assay volume of 100-200 μL. The change in fluorescence intensity over time was monitored on a SpectraMax M2 (Molecular Devices) using excitation/emission wavelengths of 320/420 nm (IQF peptides) or 360/460 nm (other fluorescent peptides).
AEP activity has traditionally been tracked by monitoring cleavage of the fluorescent substrate Z-AAN-MCA (where Z is carboxybenzyl; MCA is 7-amido-4-methylcoumarin) [Saska et al. (2007) supra; Rotari et al. (2001) Biol. Chem. 382:953-959]. Cleavage C-terminal to the Asn liberates the fluorophore which then fluoresces to report substrate cleavage. […] They are Ac-YVAD-CHO, which is routinely used to identify AEP activity (Hatsugai et al. (2004) Science 305(5685): 855-858) and Ac-STRN-CHO, which represents the P1-P4 residues of the C-terminal kB1 cleavage site. These traditional routes of identifying AEP activity will therefore likely be ineffective for identification of AEPs with cyclizing ability.

[3] = test system: target peptide-linker-ubiquitin-6xHis fusion protein; assay: AEP-mediated processing of target peptides fused to ubiquitin; format: biochemical; conditions: kalata B1-ubiquitin 260 μg mL^−1, AEP 19.7 μg mL^−1 total protein, 22 h, SDS-PAGE/anti-6xHis Western blot
[4] = rOaAEP1b 12 μg mL^−1 total protein, 22 hours, peak area as percentage of total peak area of that peptide, average of three experiments

Chain of rOaAEP1b (as listed by the source): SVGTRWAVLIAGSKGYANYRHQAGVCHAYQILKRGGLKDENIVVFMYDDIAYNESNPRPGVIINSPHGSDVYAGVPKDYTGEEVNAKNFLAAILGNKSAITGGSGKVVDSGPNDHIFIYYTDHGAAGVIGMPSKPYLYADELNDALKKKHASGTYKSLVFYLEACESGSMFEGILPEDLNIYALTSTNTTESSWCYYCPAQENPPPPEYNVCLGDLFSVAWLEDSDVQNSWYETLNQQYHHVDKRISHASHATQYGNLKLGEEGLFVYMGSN

| Molecule | Linear precursor (%) (rOaAEP1b; [4]) | Cyclic product (%) (rOaAEP1b; [4]) | also measured |
| --- | --- | --- | --- |
| GLPVFAEFLPLFSKFGSRMHILKSTRNGL (R1) [anti-malarial peptide R1 produced with additional AEP recognition residues] | – | – | cyclization of linear precursor peptide by recombinant AEPs [1]: efficiently cyclized |
| GLVFAEFLPLFSKFGSRMHILKNG (rOaAEP1b-mediated processing) [SEQ ID NO: 28, R1 peptide derivative] | 100 | – | – |
| rOaAEP5: recombinant Oldenlandia affinis asparaginyl endopeptidase OaAEP5 | – | – | activity against Z-AAN-MCA [2]: nor rOaAEP1b, rOaAEP3, rOaAEP4 or rOaAEP5 (FIG. 15) had detectable activity; proportion of fusion protein enzymatically processed (loss of precursor) [3]: the bulk of the precursor was being enzymatically processed |
| GLPVFAEFLPLFSKFGSRMHILKSTRNGLP (rOaAEP1b-mediated processing) [SEQ ID NO: 26, R1 peptide derivative] | 21.2 | 78.8 | – |
| GLVFAEFLPLFSKFGSRMHILKNGL (rOaAEP1b-mediated processing) [SEQ ID NO: 27, R1 peptide derivative] | 7.1 | 92.9 | – |
| VFAEFLPLFSKFGSRMHILK [native R1 peptide, reference compound] | – | – | processing/cyclization by rOaAEP1b (rOaAEP1b; MALDI MS): No processing |
| GLPRLARIVVIRVARTRNGLP (Bac2A) | – | – | cyclization of linear precursor peptide by recombinant AEPs [1]: efficiently cyclized |
| GLPGSGRGSCRSQCMRRHEDEPWRVQECVSQCRRRRGGGDTRNGLP (additional AEP recognition residues; EcAMP1) [anti-fungal peptide EcAMP1 with additional AEP recognition residues] | – | – | cyclization of linear precursor peptide by recombinant AEPs [1]: efficiently cyclized |
| QLVFAEFLPLFSKFGSRMHILKNGL (rOaAEP1b-mediated processing) [SEQ ID NO: 30, R1 peptide derivative] | 6.9 | 93.1 | – |
| VFAEFLPLFSKFGSRMHILKNGL (rOaAEP1b-mediated processing) [SEQ ID NO: 29, R1 peptide derivative] | 27.7 | 49.6 | Linear product (%) (rOaAEP1b; [4]): 27.7% |
| KLVFAEFLPLFSKFGSRMHILKNGL (rOaAEP1b-mediated processing) [SEQ ID NO: 31, R1 peptide derivative] | 17.8 | 82.2 | – |
| B1 | – | – | activity against Z-AAN-MCA [2]: nor rOaAEP1b, rOaAEP3, rOaAEP4 or rOaAEP5 (FIG. 15) had detectable activity; proportion of fusion protein enzymatically processed (loss of precursor) [3]: the bulk of the precursor was being enzymatically processed |
| B2 | – | – | activity against Z-AAN-MCA [2]: nor rOaAEP1b, rOaAEP3, rOaAEP4 or rOaAEP5 (FIG. 15) had detectable activity; proportion of fusion protein enzymatically processed (loss of precursor) [3]: a smaller proportion of the precursor protein was processed |
